Tests used:
[1] = cited from earlier work
microorganisms = conditions: cited from earlier work
[2] = stability (half-life) of ozone as gas and in water; type: physicochemical; conditions: new injection technique with inorganic wetting agent; threefold
Method: Ozone is a highly unstable molecule in gaseous form which disintegrated in a short period of time (half-life time ca. 20 minutes) again in oxygen.
With this new injection technique of the extensive mixing of ozone with the spray waters and with the combination of an inorganic wetting agent, the ozone concentration in the dissolved gas bubbles can be up to 17% and has a threefold capacity in the water (up to 1 hour) the fact that ozone gas is transforming to oxygen.
The half-life time of Ozone in water is approximately 2 minutes, in other words the ozone concentration in water is reduced by half every 2 minutes.

[3] = cited from earlier work; remark: listed apart in the source

O=[O+][O-] [Ozone]
half-life time ([1]; gaseous form, disintegration to oxygen): ca. 20 minutes | half-life time of Ozone in water ([1]; in water): approximately 2 minutes | speed of destruction of microorganisms relative to chlorine (microorganisms; faster than chlorine): 3125 times | reactivity relative to chlorine (microorganisms; more reactive than chlorine): 51 times | capacity (persistence) of ozone in the water [2]: up to 1 hour | exposition concentration unproblematic for permanent exposure [3]: 0.1 mg per m3/air
